Drawing on ChEMBL document CHEMBL1828599, “Synthesis, fluorescence and biodistribution of a bone-targeted near-infrared conjugate” (Eur J Med Chem, 2011), this text covers Drug uptake for 4 molecules.

The subject of data set [1] is Liver. The data set is described as follows: Biodistribution in liver of BALB/C mouse at 1.7 x 10^-6 mol/kg, iv as single dose measured up to 60 mins by fluorescence imaging technique. It is filed as ADME, organism-based. The following applies: in vivo, 1 h.
Data set [2] has as its system Liver. The experiment in a line: Biodistribution in liver of BALB/C mouse at 1.7 x 10^-6 mol/kg, iv as single dose measured at 4 hrs by fluorescence imaging technique. It is filed as ADME, organism-based. The following applies: in vivo.
The subject of data set [3] is Kidney. The experiment in a line: Biodistribution in Kidney of BALB/C mouse at 1.7 x 10^-6 mol/kg, iv as single dose measured at 4 hrs by fluorescence imaging technique. It is filed as ADME, organism-based. To be noted: in vivo.
The test system of data set [4] is Duodenum. The experiment in a line: Biodistribution in duodenum of BALB/C mouse at 1.7 x 10^-6 mol/kg, iv as single dose measured at 4 hrs by fluorescence imaging technique. It is filed as ADME, organism-based. To be noted: in vivo.
In data set [5] the test system is Mus musculus. The data set is described as follows: Biodistribution in bone joint of BALB/C mouse at 1.7 x 10^-6 mol/kg, iv as single dose measured at 24 hrs by fluorescence imaging technique. To be noted: in vivo. In kind it is ADME, organism-based, Bone element.
Data set [6] has as its system Mus musculus. The experiment in a line: Biodistribution in leg bone of BALB/C mouse at 1.7 x 10^-6 mol/kg, iv as single dose measured at 24 hrs by fluorescence imaging technique. The following applies: in vivo. It is filed as ADME, organism-based, Bone element.
The test system of data set [7] is Mus musculus. The data set is described as follows: Biodistribution in hip bone of BALB/C mouse at 1.7 x 10^-6 mol/kg, iv as single dose measured at 24 hrs by fluorescence imaging technique. In kind it is ADME, organism-based, Bone of hip region. To be noted: in vivo.
Data set [8] has as its system Mus musculus. The experiment in a line: Biodistribution in bone joint of BALB/C mouse at 1.7 x 10^-6 mol/kg, iv as single dose measured up to 8 days by fluorescence imaging technique. In kind it is ADME, organism-based, Bone element. To be noted: in vivo, 192 h.
In data set [9] the test system is Mus musculus. The data set is described as follows: Biodistribution in bone joint of BALB/C mouse at 1.7 x 10^-6 mol/kg, iv as single dose measured at 16 days by fluorescence imaging technique. It is filed as ADME, organism-based, Bone element. To be noted: in vivo, 384 h.
For data set [10], the system named is Mus musculus. The data set is described as follows: Biodistribution in soft tissue of BALB/C mouse at 1.7 x 10^-6 mol/kg, iv as single dose measured at 24 hrs by fluorescence imaging technique. In kind it is ADME, organism-based. To be noted: in vivo.

As to `CC1(C)C(/C=C/C=C/C=C/C=C2\N(CCCCC(=O)O)c3ccc4ccccc4c3C2(C)C)=[N+](CCCCS(=O)(=O)[O-])c2ccc3ccccc3c21`, the Drug uptake result in data set [1] is “Active”; in [2], “Active”; in [3], “Active”; in [4] it was “Active”; in data set [5] it was “Not Active”.

For the molecule `CC1(C)C(/C=C/C=C/C=C/C=C2\N(CCCCC(=O)O)c3ccc4ccccc4c3C2(C)C)=[N+](CCCCC(=O)[O-])c2ccc3ccccc3c21`, the Drug uptake entry in [1] is listed as “Active”; in data set [2], “Active”; in data set [3], “Active”; in data set [4], “Active”; in data set [5], “Not Active”.

In the case of `CC1(C)C(/C=C/C=C/C=C/C=C2\N(CCCCC(=O)CCCC(O)(P(=O)([O-])O)P(=O)(O)O)c3ccc4ccccc4c3C2(C)C)=[N+](CCCCS(=O)(=O)[O-])c2ccc3ccccc3c21.[Na+]`, the Drug uptake result in data set [6] was “Active”; in data set [7], “Active”; in [8], “Active”; in [9], “Not Active”; in data set [10], “Not Active”.

With `CC1(C)C(/C=C/C=C/C=C/C=C2/N(CCCCS(=O)(=O)[O-])c3ccc4ccccc4c3C2(C)C)=[N+](CCCCS(=O)(=O)[O-])c2ccc3ccccc3c21.[Na+]` [INDOCYANINE GREEN], the Drug uptake result in data set [1], in data set [2], in [3], in data set [4] and in data set [5] was “Active” throughout.
